Reference: US20250320252A1 (The Scripps Research Institute, priority 2021, published 2025)
Where two headings read alike, the source gives them in different places. Numbered stars: 1 amine (or outer) side, 2 acyl side, 3 side chain; on linkers, the order of the positions; unused ones are H or OH. Bridge positions count the residues as written; N and C are the ends. Square brackets hold non-standard residues; d marks the D form. Peptide text beside a SMILES is read from it. X2 = O=C(O)CCCCCCCCCCCCCCCCCCC(=O)N[C@@H](CCCCNC(=O)CCOCCOCCNC(=O)CCOCCOCCNC(=O)CCC(=O)N(CCNC(=O)C[*:1])CCNC(=O)C[*:2])C(=O)O; Aib = CC(C)(N)C(=O)O

Tests used:
[1] = biological target: T1, human GLP-1R (Homo sapiens, UniProt P43220); assay: In vitro receptor activation reporter assay (CRE-Luc), HEK293-GLP-1R-CRE; format: cell-based
T1 construct: expressed in transfected cells
T1 sequence (P43220 24-463): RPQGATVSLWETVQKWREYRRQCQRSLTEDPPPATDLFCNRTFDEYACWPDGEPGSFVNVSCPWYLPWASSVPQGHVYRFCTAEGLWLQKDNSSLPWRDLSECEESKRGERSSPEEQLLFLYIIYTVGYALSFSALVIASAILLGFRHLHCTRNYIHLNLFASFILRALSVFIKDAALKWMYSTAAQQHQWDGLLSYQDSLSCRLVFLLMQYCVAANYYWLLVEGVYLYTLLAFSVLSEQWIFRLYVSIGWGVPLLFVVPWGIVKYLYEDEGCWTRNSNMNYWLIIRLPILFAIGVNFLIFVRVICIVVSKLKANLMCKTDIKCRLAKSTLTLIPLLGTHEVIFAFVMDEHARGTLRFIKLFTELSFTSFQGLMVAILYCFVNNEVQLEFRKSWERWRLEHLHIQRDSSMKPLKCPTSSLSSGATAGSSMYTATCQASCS
Description: (§1) The EC50 of each peptide was determined using GraphPad Prism 6 software (GraphPad, San Diego, CA).
HEK293 cells were infected with lentivirus encoding firefly luciferase gene under the control of cAMP responsive element (CRE) promoter (Qiagen, The Netherlands) and then were selected using 1 g/mL puromycin (Life Technologies, Carlsbad) for 1 week. The surviving cells (referred to as CRE-HEK293) were expanded and then transfected with a G418 selective mammalian expression plasmid encoding human GLP-1R. In brief, GLP-1R plasmid was transfected into CRE-HEK293 cells using Lipofectamine 2000 and selected with 400 g/mL Geneticin (Life Technologies, Carlsbad, CA). Single colony stable cell line overexpressing CRE-luciferase and GLP1R was then established for in vitro activity assay.

[2] = biological target: T2, human GIPR (Homo sapiens, UniProt P48546); assay: In vitro receptor activation reporter assay (CRE-Luc), HEK293-GIPR-CRE; format: cell-based; details: read-out: EC50 [nM] GIPR
T2 construct: expressed in transfected cells
T2 sequence (P48546 22-466): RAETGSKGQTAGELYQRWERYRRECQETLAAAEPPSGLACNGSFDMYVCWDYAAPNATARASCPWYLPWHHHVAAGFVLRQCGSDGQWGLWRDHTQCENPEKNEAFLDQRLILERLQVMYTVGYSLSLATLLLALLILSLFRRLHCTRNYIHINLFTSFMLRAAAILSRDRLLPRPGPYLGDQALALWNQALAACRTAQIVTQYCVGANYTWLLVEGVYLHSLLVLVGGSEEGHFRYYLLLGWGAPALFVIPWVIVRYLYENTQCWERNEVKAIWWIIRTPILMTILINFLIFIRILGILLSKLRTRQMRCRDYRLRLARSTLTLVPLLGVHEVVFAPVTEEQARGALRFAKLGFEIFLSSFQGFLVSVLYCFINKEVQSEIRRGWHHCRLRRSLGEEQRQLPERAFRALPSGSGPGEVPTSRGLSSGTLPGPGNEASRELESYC
Excerpt: HEK293 cells were infected with lentivirus encoding firefly luciferase gene under the control of cAMP responsive element (CRE) promoter (Qiagen, The Netherlands) and then were selected using 1 g mL^−1 puromycin (Life Technologies, Carlsbad) for 1 week. The surviving cells (referred to as CRE-HEK293) were expanded and then transfected with a G418 selective mammalian expression plasmid encoding human GLP-1R or GIPR. In brief, GLP-1R or GIPR plasmid was transfected into CRE-HEK293 cells using Lipofectamine 2000 and selected with 400 g mL^−1 Geneticin (Life Technologies, Carlsbad, CA). Single colony stable cell line overexpressing CRE-luciferase and GLP-1R or GIPR (HEK293-GLP-1R-CRE or HEK293-GIPR-CRE) was then established for in vitro activity assay.
as §1

Compound `CC[C@H](C)[C@H](NC(=O)[C@H](CO)NC(=O)[C@H](Cc1ccc(O)cc1)NC(=O)[C@H](CC(=O)O)NC(=O)[C@H](CO)NC(=O)[C@@H](NC(=O)[C@H](Cc1ccccc1)NC(=O)[C@@H](NC(=O)CNC(=O)[C@H](CCC(=O)O)NC(=O)C(C)(C)NC(=O)[C@@H](N)Cc1ccc(O)cc1)[C@@H](C)O)[C@@H](C)O)C(=O)N[C@@H](Cc1ccc(O)cc1)C(=O)N[C@@H](CC(C)C)C(=O)N[C@@H](CC(=O)O)C(=O)N[C@@H](CCCCN)C(=O)N[C@H]1CSCC(=O)NCCN(C(=O)CCC(=O)NCCOCCOCCC(=O)NCCOCCOCCC(=O)NCCCC[C@H](NC(=O)CCCCCCCCCCCCCCCCC(=O)O)C(=O)O)CCNC(=O)CSC[C@@H](C(=O)N[C@@H](Cc2c[nH]c3ccccc23)C(=O)N[C@@H](CC(C)C)C(=O)N[C@@H](CC(C)C)C(=O)N[C@@H](C)C(=O)NCC(=O)NCC(=O)N2CCC[C@H]2C(=O)N[C@@H](CO)C(=O)N[C@@H](CO)C(=O)NCC(=O)N[C@@H](C)C(=O)N2CCC[C@H]2C(=O)N2CCC[C@H]2C(=O)N2CCC[C@H]2C(=O)N[C@@H](CO)C(N)=O)NC(=O)[C@H](C(C)C)NC(=O)[C@H](Cc2ccccc2)NC(=O)[C@H](CCC(=O)O)NC(=O)C(C)(C)NC(=O)[C@H](C)NC(=O)[C@H](C)NC1=O` [C(17-24) - L5A, YAibEGT-FTSDY-SIYLD-KXAAAib-EFVXW-LLAGG-PSSGA-PPPS-NH2 (where each X is C)] has an EC50 ([1]; Table 9, read-out: EC50 [nM] GLP1R) of 0.11 nM and an EC50 ([2]; Table 9) of 0.05 nM.

`CC[C@H](C)[C@H](NC(=O)[C@H](CC(C)C)NC(=O)[C@H](Cc1c[nH]c2ccccc12)NC(=O)[C@@H]1CSCC(=O)NCCN(C(=O)CCC(=O)NCCOCCOCCC(=O)NCCOCCOCCC(=O)NCCCC[C@H](NC(=O)CCCCCCCCCCCCCCCCCCC(=O)O)C(=O)O)CCNC(=O)CSC[C@H](NC(=O)[C@H](CCCCN)NC(=O)[C@H](CC(=O)O)NC(=O)[C@H](CC(C)C)NC(=O)[C@H](Cc2ccc(O)cc2)NC(=O)[C@@H](NC(=O)[C@H](CO)NC(=O)[C@H](Cc2ccc(O)cc2)NC(=O)[C@H](CC(=O)O)NC(=O)[C@H](CO)NC(=O)[C@@H](NC(=O)[C@H](Cc2ccc(O)cc2)NC(=O)[C@@H](NC(=O)CNC(=O)[C@H](CCC(=O)O)NC(=O)C(C)(C)NC(=O)[C@@H](N)Cc2ccc(O)cc2)[C@@H](C)O)[C@@H](C)O)[C@@H](C)CC)C(=O)N[C@@H](C)C(=O)N[C@@H](C)C(=O)NC(C)(C)C(=O)N[C@@H](CCC(=O)O)C(=O)N[C@@H](Cc2ccccc2)C(=O)N[C@@H](C(C)C)C(=O)N1)C(=O)N[C@@H](C)C(=O)NCC(=O)NCC(=O)N1CCC[C@H]1C(=O)N[C@@H](CO)C(=O)N[C@@H](CO)C(=O)NCC(=O)N[C@@H](C)C(=O)N1CCC[C@H]1C(=O)N1CCC[C@H]1C(=O)N1CCC[C@H]1C(=O)N[C@@H](CO)C(N)=O` [6Y, 271, C(17-24) - C20L5A, YAibEGT-YTSDY-SIYLD-KXAAAib-EFVXW-LIAGG-PSSGA-PPPS-NH2 (where each X is C)] (H-Y[Aib]EGTYTSDYSIYLDKCAA[Aib]EFVCWLIAGGPSSGAPPPS-NH2; linker 17-24 via X2) showed an EC50 ([1]; unnumbered table (Table 10), average of runs, read-out: GLP1R (nM) [EC50] average) of 0.06 nM, an EC50 ([1]; unnumbered table (Table 10), run 02/19, read-out: GLP1R (nM) [EC50] 02/19) of 0.05 nM and an EC50 ([1]; unnumbered table (Table 10), run 3/25, read-out: GLP1R (nM) [EC50] 3/25) of 0.07 nM. It also gave an EC50 ([1]; unnumbered table (Table 10), run 03/26, read-out: GLP1R (nM) [EC50] 03/26) of 0.06 nM.

In the case of `CC[C@H](C)[C@H](NC(=O)[C@H](CC(C)C)NC(=O)[C@H](Cc1c[nH]c2ccccc12)NC(=O)[C@@H]1CSCC(=O)NCCN(C(=O)CCC(=O)NCCOCCOCCC(=O)NCCOCCOCCC(=O)NCCCC[C@H](NC(=O)CCCCCCCCCCCCCCCCCCC(=O)O)C(=O)O)CCNC(=O)CSC[C@H](NC(=O)[C@H](CCCCN)NC(=O)[C@H](CC(=O)O)NC(=O)[C@H](CC(C)C)NC(=O)[C@H](Cc2ccc(O)cc2)NC(=O)[C@@H](NC(=O)[C@H](CO)NC(=O)[C@H](Cc2ccc(O)cc2)NC(=O)[C@H](CC(=O)O)NC(=O)[C@H](CO)NC(=O)[C@@H](NC(=O)[C@H](Cc2ccccc2)NC(=O)[C@@H](NC(=O)CNC(=O)[C@H](CCC(=O)O)NC(=O)C(C)(C)NC(=O)[C@@H](N)Cc2ccc(O)cc2)[C@@H](C)O)[C@@H](C)O)[C@@H](C)CC)C(=O)N[C@@H](C)C(=O)N[C@@H](CCC(N)=O)C(=O)NC(C)(C)C(=O)N[C@@H](C)C(=O)N[C@@H](Cc2ccccc2)C(=O)N[C@@H](C(C)C)C(=O)N1)C(=O)N[C@@H](C)C(=O)N[C@@H](CCC(N)=O)C(=O)NCC(=O)N1CCC[C@H]1C(=O)N[C@@H](CO)C(=O)N[C@@H](CO)C(=O)NCC(=O)N[C@@H](C)C(=O)N1CCC[C@H]1C(=O)N1CCC[C@H]1C(=O)N1CCC[C@H]1C(=O)N[C@@H](CO)C(N)=O` [19Q, 21A, 27I, 29Q, C(17-24) - C20L5A, YAibEGT-FTSDY-SIYLD-KXAQAib-AFVXW-LIAQG-PSSGA-PPPS-NH2 (where each X is C)], the EC50 ([2]; Table 9) is reported as 0.02 nM.

With `CC[C@H](C)[C@H](NC(=O)[C@H](CC(C)C)NC(=O)[C@H](Cc1c[nH]c2ccccc12)NC(=O)[C@H](CC(N)=O)NC(=O)[C@@H](NC(=O)[C@H](Cc1ccccc1)NC(=O)[C@@H]1CSCC(=O)NCCN(C(=O)CCC(=O)NCCOCCOCCC(=O)NCCOCCOCCC(=O)NCCCC[C@H](NC(=O)CCCCCCCCCCCCCCCCC(=O)O)C(=O)O)CCNC(=O)CSC[C@H](NC(=O)[C@H](Cc2ccc(O)cc2)NC(=O)[C@@H](NC(=O)[C@H](CO)NC(=O)[C@H](Cc2ccc(O)cc2)NC(=O)[C@H](CC(=O)O)NC(=O)[C@H](CO)NC(=O)[C@@H](NC(=O)[C@H](Cc2ccccc2)NC(=O)[C@@H](NC(=O)CNC(=O)[C@H](CCC(=O)O)NC(=O)C(C)(C)NC(=O)[C@@H](N)Cc2ccc(O)cc2)[C@@H](C)O)[C@@H](C)O)[C@@H](C)CC)C(=O)N[C@@H](CC(=O)O)C(=O)N[C@@H](CCCCN)C(=O)N[C@@H](CCC(N)=O)C(=O)N[C@@H](C)C(=O)N[C@@H](C)C(=O)NC(C)(C)C(=O)N1)C(C)C)C(=O)N[C@@H](C)C(=O)NCC(=O)NCC(=O)N1CCC[C@H]1C(=O)N[C@@H](CO)C(=O)N[C@@H](CO)C(=O)NCC(=O)N[C@@H](C)C(=O)N1CCC[C@H]1C(=O)N1CCC[C@H]1C(=O)N1CCC[C@H]1C(=O)N[C@@H](CO)C(N)=O` [27I, C(14-21) - L5A, YAibEGT-FTSDY-SIYXD-KQAAAib-XFVNW-LIAGG-PSSGA-PPPS-NH2 (where each X is C)] the EC50 ([1]; Table 8, read-out: EC50 [nM] GLP1R) was 0.04 nM and the EC50 ([2]; Table 8) was 0.03 nM.

Compound `CC[C@H](C)[C@H](NC(=O)[C@H](CO)NC(=O)[C@H](Cc1ccc(O)cc1)NC(=O)[C@H](CC(=O)O)NC(=O)[C@H](CO)NC(=O)[C@@H](NC(=O)[C@H](Cc1ccccc1)NC(=O)[C@@H](NC(=O)CNC(=O)[C@H](CCC(=O)O)NC(=O)C(C)(C)NC(=O)[C@@H](N)Cc1ccc(O)cc1)[C@@H](C)O)[C@@H](C)O)C(=O)N[C@@H](Cc1ccc(O)cc1)C(=O)N[C@H]1CCCCNC(=O)CN(C(=O)CCNC(=O)CCOCCOCCNC(=O)CCOCCOCCNC(=O)CC[C@H](NC(=O)CCCCCCCCCCCCCCCCC(=O)O)C(=O)O)CC(=O)NCCCC[C@@H](C(=O)N[C@@H](Cc2ccccc2)C(=O)N[C@H](C(=O)N[C@@H](CC(N)=O)C(=O)N[C@@H](Cc2c[nH]c3ccccc23)C(=O)N[C@@H](CC(C)C)C(=O)N[C@@H](CC(C)C)C(=O)N[C@@H](C)C(=O)NCC(=O)NCC(=O)N2CCC[C@H]2C(=O)N[C@@H](CO)C(=O)N[C@@H](CO)C(=O)NCC(=O)N[C@@H](C)C(=O)N2CCC[C@H]2C(=O)N2CCC[C@H]2C(=O)N2CCC[C@H]2C(=O)N[C@@H](CO)C(N)=O)C(C)C)NC(=O)C(C)(C)NC(=O)[C@H](C)NC(=O)[C@H](C)NC(=O)[C@H](CCC(N)=O)NC(=O)[C@H](CCCCN)NC(=O)[C@H](CC(=O)O)NC1=O` [mCLZ715, YAibEGT-FTSDY-SIYXD-KQAAAib-XFVNW-LLAGG-PSSGA-PPPS-NH2 (where each X is K)] has an EC50 ([1]; Table 7, read-out: EC50 [nM] GLP1R) of 0.02 nM.

Compound `CC[C@H](C)[C@H](NC(=O)[C@H](CO)NC(=O)[C@H](Cc1ccc(O)cc1)NC(=O)[C@H](CC(=O)O)NC(=O)[C@H](CO)NC(=O)[C@@H](NC(=O)[C@H](Cc1ccccc1)NC(=O)[C@@H](NC(=O)CNC(=O)[C@H](CCC(=O)O)NC(=O)C(C)(C)NC(=O)[C@@H](N)Cc1ccc(O)cc1)[C@@H](C)O)[C@@H](C)O)C(=O)N[C@@H](Cc1ccc(O)cc1)C(=O)N[C@H]1CSCC(=O)NCCN(C(=O)CCC(=O)NCCOCCOCCC(=O)NCCOCCOCCC(=O)NCCCC[C@H](NC(=O)CCCCCCCCCCCCCCCCC(=O)O)C(=O)O)CCNC(=O)CSC[C@@H](C(=O)N[C@@H](Cc2ccccc2)C(=O)N[C@H](C(=O)N[C@@H](CC(N)=O)C(=O)N[C@@H](Cc2c[nH]c3ccccc23)C(=O)N[C@@H](CC(C)C)C(=O)N[C@@H](CC(C)C)C(=O)N[C@@H](C)C(=O)NCC(=O)NCC(=O)N2CCC[C@H]2C(=O)N[C@@H](CO)C(=O)N[C@@H](CO)C(=O)NCC(=O)N[C@@H](C)C(=O)N2CCC[C@H]2C(=O)N2CCC[C@H]2C(=O)N2CCC[C@H]2C(=O)N[C@@H](CO)C(N)=O)C(C)C)NC(=O)C(C)(C)NC(=O)[C@H](C)NC(=O)[C@H](C)NC(=O)[C@H](CCC(N)=O)NC(=O)[C@H](CCCCN)NC(=O)[C@H](CC(=O)O)NC1=O` [C(14-21) - L5A, YAibEGT-FTSDY-SIYXD-KQAAAib-XFVNW-LLAGG-PSSGA-PPPS-NH2 (where each X is C)] has an EC50 ([2]; Table 8) of 0.03 nM and an EC50 ([2]; Table 9) of 0.03 nM.
